Key:
[1] = test system: skin thickness; assay: Skin thickness of hairless mice after chronic UV exposure; assay type: in vivo; conditions: hairless mice treated either before or after chronic UV exposure, vs non-treated mice
Description: Increased skin thickness may be associated with wrinkles, capillary dilation in skin and skin dryness, as well as actinic damage.

[2] = test system: CPD+ve epidermal cells; assay: Cyclobutane pyrimidine dimers (CPD) in UV-irradiated human skin; assay type: in vivo; conditions: human subject; equol treated skin post-UVR compared with vehicle-only treated skin
Description: The formation of CPD's, which occurs immediately on UV exposure (Viv Reeve, pers comm) would be unaffected by any therapeutic agent applied post-UVR. However, the rate of repair of CPDs might be increased by equol. If this occurred, fewer CPDs in equol treated skin compared with the number in vehicle-only treated skin would be observed. [drawing 5] Equol (CAS No. 531-95-3)

Row | SMILES | skin thickness [1] | percentage of CPD+ve epidermal cells [2]
1 | Oc1ccc(C2=Cc3ccc(O)cc3OC2)cc1 [dehydroequol] | decreased skin thickness | 
2 | Oc1ccc(C2COc3cc(O)ccc3C2)cc1 (stereo not drawn) [equol, Equol] | decreased skin thickness | lower percentage of CPD+ve epidermal cells

— patent US20060153782A1, “Skin photoageing and actinic damage treatment” (Novogen Research Pty Ltd, priority 2002, published 2006)
